The values below come from patent US20120045393A1 (priority 2009, published 2012).

Structures are written as SMILES. Like-named read-outs stand apart in the source and are kept apart here. Non-standard residues stand in square brackets, D forms with d. Residues, ends and D or L forms follow the SMILES beside them. *: point of attachment. DOTA = O=C(O)CN1CCN(CC(=O)O)CCN(CC(=O)*)CCN(CC(=O)O)CC1; Bpa = N[C@@H](Cc1ccc(C(=O)c2ccccc2)cc1)C(=O)O; d2Nal = N[C@H](Cc1ccc2ccccc2c1)C(=O)O; Nicotinoyl = O=C(c1cccnc1)*; azaGly = NNC(=O)O; Sar = CNCC(=O)O

The experiment relates to LHRH binding sites on human ovarian cancer cells (EFO-27).
[1] abbreviates: EFO-27 cells, competition with [125I-Tyr8]BRU-2477, 90 min.
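Further: Cell-associated radioactivity on confluent EFO-27 monolayers in 96-well plates, measured by microplate scintillation counting.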

Protocol: The EFO27 human ovarian cancer cells were obtained from the American Type Culture Collection and cultured in growth medium, RPMI 1640 (Cellgro) supplemented with 10% fetal bovine serum. The cultures were maintained in a humidified atmosphere containing 5% CO2/95% air at 37° C. and passaged and harvested routinely using 0.05% trypsin/EDTA.
LHRH compounds were screened in a standard cell-based plate assay for their ability to compete with the radio-iodinated LHRH, [Darg^6, ^125I-Tyr^8,azaGly^10-LHRH-II] ([^125I-Tyr^8]BRU-2477) for binding to cancer cells. […] Briefly, EFO-27 cells were cultured and seeded in 96-well clear flat bottom plates at 30,000/well density in growth medium and were used for the assay at 100% confluence the following day, after a wash with chilled phosphate-buffered saline pH 7.4 (PBS). The binding assay was carried out by incubating cells with [^125I-Tyr^8]BRU-2477 in the absence or presence of varying concentrations of test compounds for 90 min at −10° C. All compounds were diluted in phosphate buffered saline (VWR CAT#45000-434) supplemented with 20 mM HEPES, 0.1% BSA, 0.5 mM PMSF (AEBSF), bacitracin (100 mg/L), pH 7.4. At the end of incubation, cells were washed with PBS and the radioactivity associated with each well was read using a Microplate Scintillation counter. [^125I-Tyr^8]BRU-2477 was custom made by GE Healthcare (Woburn, Mass.) and supplied as freeze-dried powder with a radiochemical purity (RCP) of >95% and specific activity of 2000 Ci/mmol.

In general, EC50 refers to the concentration that produces a half-maximal response. Under “Table 15: C-terminus chelator-functionalized peptides, EFO-27 cells, vs [125I-Tyr8]BRU-2477”, `CNCC(=O)N[C@@H](CCCNC(=N)N)C(=O)N[C@@H](Cc1c[nH]c2ccccc12)C(=O)N[C@@H](CO)C(=O)N[C@@H](Cc1c[nH]cn1)C(=O)N[C@H](CCCNC(=N)N)C(=O)N[C@@H](Cc1c[nH]c2ccccc12)C(=O)N[C@@H](Cc1ccc(C(=O)c2ccccc2)cc1)C(=O)N1CCC[C@H]1CNC(=O)CN1CCN(CC(=O)O)CCN(CC(=O)O)CCN(CC(=O)O)CC1` [compound 3117] (HELM PEPTIDE1{[Sar].R.W.S.H.[dR].W.[O=C(c1ccccc1)c1ccc(C[C@H](N[*:1])C(=O)[*:2])cc1].[O=C(O)CN1CCN(CC(=O)O)CCN(CC(=O)NC[C@@H]2CCCN2[*:1])CCN(CC(=O)O)CC1]}$$$$V2.0; N-terminus assumed) came in with an EC50 of 340 nM.

In the case of `CC(C)NCCCC[C@H](NC(=O)[C@H](Cc1c[nH]c2ccccc12)NC(=O)[C@@H](CCCNC(=N)N)NC(=O)[C@H](Cc1c[nH]cn1)NC(=O)[C@H](CO)NC(=O)[C@H](Cc1c[nH]c2ccccc12)NC(=O)[C@H](Cc1c[nH]cn1)NC(=O)CN(C)C(=O)CN1CCN(CC(=O)O)CCN(CC(=O)O)CCN(CC(=O)O)CC1)C(=O)N1CCC[C@H]1C(=O)NNC(N)=O` [BRU-2675], it took 12300 nM to reach a half-maximal effect (EC50).

As for `CNCC(=O)N[C@@H](CCCNC(=N)N)C(=O)N[C@@H](Cc1c[nH]c2ccccc12)C(=O)N[C@@H](CO)C(=O)N[C@@H](Cc1c[nH]cn1)C(=O)N[C@H](CCCNC(=N)N)C(=O)N[C@@H](Cc1c[nH]c2ccccc12)C(=O)N[C@@H](Cc1ccc(C(=O)c2ccccc2)cc1)C(=O)N1CCC[C@H]1C(=O)NCCOCCOCCNC(=O)CN1CCN(CC(=O)O)CCN(CC(=O)O)CCN(CC(=O)O)CC1` [compound 3043], the EC50 stood at 330 ± 180 nM.

For the molecule `N=C(N)NCCC[C@H](NC(=O)[C@H](N)Cc1ccc2ccccc2c1)C(=O)N[C@@H](Cc1c[nH]c2ccccc12)C(=O)N[C@@H](CO)C(=O)N[C@@H](Cc1c[nH]cn1)C(=O)N[C@H](CCCNC(=N)N)C(=O)N[C@@H](Cc1c[nH]c2ccccc12)C(=O)N[C@@H](Cc1ccc(C(=O)c2ccccc2)cc1)C(=O)N1CCC[C@H]1C(=O)NCCOCCNC(=O)CN1CCN(CC(=O)O)CCN(CC(=O)O)CCN(CC(=O)O)CC1` [compound 2991], a half-maximal response (EC50) required 210 ± 60 nM.

In the case of `CN(NC(=O)[C@@H]1CCCN1C(=O)[C@H](Cc1ccc(C(=O)c2ccccc2)cc1)NC(=O)[C@H](Cc1c[nH]c2ccccc12)NC(=O)[C@@H](CCCNC(=N)N)NC(=O)[C@H](Cc1c[nH]cn1)NC(=O)[C@H](CO)NC(=O)[C@H](Cc1c[nH]c2ccccc12)NC(=O)[C@H](CCCNC(=N)N)NC(=O)[C@@H](Cc1ccc2ccccc2c1)NC(=O)CN1CCN(CC(=O)O)CCN(CC(=O)O)CCN(CC(=O)O)CC1)C(N)=O` [compound 3021], the midpoint of the response, the EC50, lay at 500 nM.

For the molecule `N=C(N)NCCC[C@H](NC(=O)[C@H](N)Cc1ccc2ccccc2c1)C(=O)N[C@@H](Cc1c[nH]c2ccccc12)C(=O)N[C@@H](CO)C(=O)N[C@@H](Cc1c[nH]cn1)C(=O)N[C@H](CCCNC(=N)N)C(=O)N[C@@H](Cc1c[nH]c2ccccc12)C(=O)N[C@@H](Cc1ccc(C(=O)c2ccccc2)cc1)C(=O)N1CCC[C@H]1C(=O)NCC(=O)NCCCCNC(=O)CN1CCN(CC(=O)O)CCN(CC(=O)O)CCN(CC(=O)O)CC1` [BRU-2990], the EC50 was greater than 30000 nM.

`N=C(N)NCCC[C@H](NC(=O)[C@@H](Cc1ccc2ccccc2c1)NC(=O)CN1CCN(CC(=O)O)CCN(CC(=O)O)CCN(CC(=O)O)CC1)C(=O)N[C@@H](Cc1c[nH]c2ccccc12)C(=O)N[C@@H](CO)C(=O)N[C@@H](Cc1c[nH]cn1)C(=O)N[C@H](CCCNC(=N)N)C(=O)N[C@@H](Cc1c[nH]c2ccccc12)C(=O)N[C@@H](Cc1ccc(C(=O)c2ccccc2)cc1)C(=O)N1CCC[C@H]1C(=O)NCC(=O)N[C@@H](CCC(N)=O)C(N)=O` [compound 2971] ({DOTA}-[d2Nal]RWSH[dR]W[Bpa]PGQ-NH2) registered an EC50 under setting [1] of 490 nM. This lies in the sub-micromolar range.

In the case of `N=C(N)NCCC[C@H](NC(=O)[C@H](Cc1ccc(OP(=O)(O)O)cc1)NC(=O)CN1CCN(CC(=O)O)CCN(CC(=O)O)CCN(CC(=O)O)CC1)C(=O)N[C@@H](Cc1c[nH]c2ccccc12)C(=O)N[C@@H](CO)C(=O)N[C@@H](Cc1c[nH]cn1)C(=O)N[C@H](CCCNC(=N)N)C(=O)N[C@@H](Cc1c[nH]c2ccccc12)C(=O)N[C@@H](Cc1ccc(C(=O)c2ccccc2)cc1)C(=O)N1CCC[C@H]1C(=O)NNC(N)=O` [BRU-3093], the 50% effective concentration (EC50) under setting [1] is 17000 nM.

The molecule `N=C(N)NCCC[C@H](NC(=O)[C@@H](Cc1ccc2ccccc2c1)NC(=O)CN1CCN(CC(=O)O)CCN(CC(=O)O)CCN(CC(=O)O)CC1)C(=O)N[C@@H](Cc1c[nH]c2ccccc12)C(=O)N[C@@H](CO)C(=O)N[C@@H](Cc1c[nH]cn1)C(=O)N[C@H](CCCNC(=N)N)C(=O)N[C@@H](Cc1c[nH]c2ccccc12)C(=O)N[C@@H](Cc1ccc(C(=O)c2ccccc2)cc1)C(=O)N1CCC[C@H]1C(=O)NNC(=O)NCCCCN` [compound 3019] yielded an EC50 of 900 nM.

In turn, `N=C(N)NCCC[C@H](NC(=O)[C@@H](Cc1ccc2ccccc2c1)NC(=O)CN1CCN(CC(=O)O)CCN(CC(=O)O)CCN(CC(=O)O)CC1)C(=O)N[C@@H](CCC(=O)O)C(=O)N[C@@H](CO)C(=O)N[C@@H](Cc1c[nH]cn1)C(=O)N[C@H](CCCNC(=N)N)C(=O)N[C@@H](Cc1c[nH]c2ccccc12)C(=O)N[C@@H](Cc1ccc(C(=O)c2ccccc2)cc1)C(=O)N1CCC[C@H]1C(=O)NNC(N)=O` [BRU-3110] ({DOTA}-[d2Nal]RESH[dR]W[Bpa]P[azaGly]-NH2; C-terminus assumed) displayed an EC50 of 2600 nM. Also, under “ratio of EC50 to BRU-2813 (EC50=0.33 μM)”, the “binding potency, times lower than BRU-2813” value is reported as roughly 8.

In turn, `CN(CC(=O)N[C@@H](Cc1c[nH]cn1)C(=O)N[C@@H](Cc1c[nH]c2ccccc12)C(=O)N[C@@H](CO)C(=O)N[C@@H](Cc1c[nH]cn1)C(=O)N[C@H](CCCCNC(=O)c1cccnc1)C(=O)N[C@@H](Cc1c[nH]c2ccccc12)C(=O)N[C@@H](Cc1ccc(C(=O)c2ccccc2)cc1)C(=O)N1CCC[C@H]1C(=O)NNC(N)=O)C(=O)CN1CCN(CC(=O)O)CCN(CC(=O)O)CCN(CC(=O)O)CC1` [compound 2671] ({DOTA}-[Sar]HWSH[dK](Nicotinoyl)W[Bpa]P[azaGly]-NH2) returned an EC50 under setting [1] of 7200 nM.

Under “Table 5: modifications of amino acids at positions 1 and 2, in vitro binding on EFO-27 cells”, `N=C(N)NCCC[C@@H](NC(=O)[C@H](Cc1c[nH]cn1)NC(=O)[C@H](CO)NC(=O)[C@H](Cc1c[nH]c2ccccc12)NC(=O)[C@H](Cc1c[nH]cn1)NC(=O)[C@@H]1CSCN1C(=O)CNC(=O)CN1CCN(CC(=O)O)CCN(CC(=O)O)CCN(CC(=O)O)CC1)C(=O)N[C@@H](Cc1c[nH]c2ccccc12)C(=O)N[C@@H](Cc1ccc(C(=O)c2ccccc2)cc1)C(=O)N1CCC[C@H]1C(=O)NNC(N)=O` [BRU-2728] displayed an EC50 of 3150 nM.

The molecule `N=C(N)NCCC[C@H](NC(=O)[C@@H](Cc1ccc2ccccc2c1)NC(=O)CN1CCN(CC(=O)O)CCN(CC(=O)O)CCN(CC(=O)O)CC1)C(=O)N[C@@H](Cc1c[nH]c2ccccc12)C(=O)N[C@@H](CO)C(=O)N[C@@H](CCCNC(N)=O)C(=O)N[C@H](CCCNC(=N)N)C(=O)N[C@@H](Cc1c[nH]c2ccccc12)C(=O)N[C@@H](Cc1ccc(C(=O)c2ccccc2)cc1)C(=O)N1CCC[C@H]1C(=O)NNC(N)=O` [BRU-3030] yielded a concentration giving a half-maximal response (EC50) of 930 nM.

`N=C(N)NCCC[C@H](NC(=O)[C@@H](Cc1ccc2ccccc2c1)NC(=O)CN1CCN(CC(=O)O)CCN(CC(=O)O)CCN(CC(=O)O)CC1)C(=O)N[C@@H](Cc1c[nH]c2ccccc12)C(=O)N[C@@H](CO)C(=O)N[C@@H](Cc1c[nH]cn1)C(=O)N[C@H](CCCNC(=N)N)C(=O)N[C@@H](Cc1c[nH]c2ccccc12)C(=O)N[C@@H](Cc1ccc(C(=O)c2ccccc2)cc1)C(=O)O` [compound 3064] ({DOTA}-[d2Nal]RWSH[dR]W[Bpa]-OH; N-terminus assumed) displayed a 50% effective concentration (EC50) of 670 nM. This EC50 and that of the molecule before are within 1.5-fold of each other.

`CNCC(=O)N[C@@H](CCCNC(=N)N)C(=O)N[C@@H](Cc1c[nH]c2ccccc12)C(=O)N[C@@H](CO)C(=O)N[C@@H](Cc1c[nH]cn1)C(=O)N[C@H](CCCNC(=N)N)C(=O)N[C@@H](Cc1c[nH]c2ccccc12)C(=O)N[C@@H](Cc1ccc(C(=O)c2ccccc2)cc1)C(=O)N1CCC[C@H]1C(=O)NCc1cccc(CNC(=O)CN2CCN(CC(=O)O)CCN(CC(=O)O)CCN(CC(=O)O)CC2)n1` [compound 3080]: the concentration for a half-maximal effect (EC50) stood at 230 ± 100 nM.

Take `N=C(N)NCCC[C@H](NC(=O)[C@@H](Cc1ccc2ccccc2c1)NC(=O)CN1CCN(CC(=O)O)CCN(CC(=O)O)CCN(CC(=O)O)CC1)C(=O)N[C@@H](Cc1c[nH]c2ccccc12)C(=O)N[C@@H](CO)C(=O)N[C@@H](Cc1c[nH]cn1)C(=O)N[C@H](CCCNC(=N)N)C(=O)N[C@@H](Cc1c[nH]c2ccccc12)C(=O)N[C@@H](Cc1ccc(C(=O)c2ccccc2)cc1)C(=O)N1CCC[C@H]1C(=O)Nc1ccccc1` [compound 3006]: a half-maximal response (EC50) required 420 nM.

Take `N=C(N)NCCC[C@H](NC(=O)[C@H](N)Cc1ccc2ccccc2c1)C(=O)N[C@@H](Cc1c[nH]c2ccccc12)C(=O)N[C@@H](CO)C(=O)N[C@@H](Cc1c[nH]cn1)C(=O)N[C@H](CCCNC(=N)N)C(=O)N[C@@H](Cc1c[nH]c2ccccc12)C(=O)N[C@@H](Cc1ccc(C(=O)c2ccccc2)cc1)C(=O)N1CCC[C@H]1C(=O)NCCCCNC(=O)CN1CCN(CC(=O)O)CCN(CC(=O)O)CCN(CC(=O)O)CC1` [BRU-3042]: the half-maximal effective concentration (EC50) was no more than 200 nM.

In the case of `CNCC(=O)N[C@@H](CCCNC(=N)N)C(=O)N[C@@H](Cc1c[nH]c2ccccc12)C(=O)N[C@@H](CO)C(=O)N[C@@H](Cc1c[nH]cn1)C(=O)N[C@H](CCCNC(=N)N)C(=O)N[C@@H](Cc1c[nH]c2ccccc12)C(=O)N[C@@H](Cc1ccc(C(=O)c2ccccc2)cc1)C(=O)N1CCC[C@H]1C(=O)NCCCN(C)CCCNC(=O)CN1CCN(CC(=O)O)CCN(CC(=O)O)CCN(CC(=O)O)CC1` [compound 3045], the EC50 stood at 210 ± 80 nM.

The molecule `N=C(N)NCCC[C@H](NC(=O)[C@@H](Cc1ccc2ccccc2c1)NC(=O)CN1CCN(CC(=O)O)CCN(CC(=O)O)CCN(CC(=O)O)CC1)C(=O)N[C@@H](Cc1c[nH]c2ccccc12)C(=O)N[C@@H](Cc1c[nH]c2ccccc12)C(=O)N[C@@H](Cc1c[nH]cn1)C(=O)N[C@H](CCCNC(=N)N)C(=O)N[C@@H](Cc1c[nH]c2ccccc12)C(=O)N[C@@H](Cc1ccc(C(=O)c2ccccc2)cc1)C(=O)N1CCC[C@H]1C(=O)NNC(N)=O` [compound 3114] ({DOTA}-[d2Nal]RWWH[dR]W[Bpa]P[azaGly]-NH2) yielded a concentration giving a half-maximal response (EC50) of 11500 nM.
